Assay in all cases: DSF assay
What all share (format): binding
Details in all cases: 20 µM compound
For orientation: Differential scanning fluorimetry follows unfolding on heating by fluorescence.

For one experiment, the target named is T1, BRAFA (Homo sapiens, UniProt P15056).
T1 construct: purchased in-house DSF panel (SGC-style construct names; the trailing A/B is a construct suffix)

A further experiment addresses T2, CAMK4A (Homo sapiens, UniProt Q16566).
T2 construct: purchased in-house DSF panel (SGC-style construct names; the trailing A/B is a construct suffix)
T2 sequence (Q16566 1-473): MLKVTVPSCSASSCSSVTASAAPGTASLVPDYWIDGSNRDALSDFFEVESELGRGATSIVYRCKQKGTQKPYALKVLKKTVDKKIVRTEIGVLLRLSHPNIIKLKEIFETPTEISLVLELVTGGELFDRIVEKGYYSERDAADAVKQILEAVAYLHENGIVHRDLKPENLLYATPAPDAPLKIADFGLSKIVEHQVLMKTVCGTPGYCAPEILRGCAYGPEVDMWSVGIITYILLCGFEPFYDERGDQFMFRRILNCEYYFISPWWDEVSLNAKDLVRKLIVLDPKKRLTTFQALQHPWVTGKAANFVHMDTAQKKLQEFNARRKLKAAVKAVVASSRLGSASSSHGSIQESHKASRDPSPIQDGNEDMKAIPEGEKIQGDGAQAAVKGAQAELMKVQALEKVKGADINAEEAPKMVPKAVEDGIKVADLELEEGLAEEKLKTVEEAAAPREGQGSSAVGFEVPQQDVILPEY

The next experiment deals with T3, CDKL1A (Homo sapiens, UniProt Q00532).
T3 construct: purchased in-house DSF panel (SGC-style construct names; the trailing A/B is a construct suffix)

Another experiment deals with T4, FLT1 (Homo sapiens, UniProt P17948).
T4 construct: purchased in-house DSF panel (SGC-style construct names; the trailing A/B is a construct suffix)
T4 sequence (P17948 801-1158): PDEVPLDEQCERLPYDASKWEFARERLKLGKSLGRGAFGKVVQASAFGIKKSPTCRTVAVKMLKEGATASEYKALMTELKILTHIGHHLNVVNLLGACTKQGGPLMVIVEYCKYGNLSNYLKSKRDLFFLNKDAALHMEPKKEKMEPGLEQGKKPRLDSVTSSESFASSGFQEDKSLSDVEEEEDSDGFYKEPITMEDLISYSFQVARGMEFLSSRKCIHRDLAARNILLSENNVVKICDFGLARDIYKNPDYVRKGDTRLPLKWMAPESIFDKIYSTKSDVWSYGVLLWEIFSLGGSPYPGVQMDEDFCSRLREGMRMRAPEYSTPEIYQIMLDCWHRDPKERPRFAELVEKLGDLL

The next experiment deals with T5, GAKA (Homo sapiens, UniProt O14976).
T5 construct: purchased in-house DSF panel (SGC-style construct names; the trailing A/B is a construct suffix)
T5 sequence (O14976 14-351): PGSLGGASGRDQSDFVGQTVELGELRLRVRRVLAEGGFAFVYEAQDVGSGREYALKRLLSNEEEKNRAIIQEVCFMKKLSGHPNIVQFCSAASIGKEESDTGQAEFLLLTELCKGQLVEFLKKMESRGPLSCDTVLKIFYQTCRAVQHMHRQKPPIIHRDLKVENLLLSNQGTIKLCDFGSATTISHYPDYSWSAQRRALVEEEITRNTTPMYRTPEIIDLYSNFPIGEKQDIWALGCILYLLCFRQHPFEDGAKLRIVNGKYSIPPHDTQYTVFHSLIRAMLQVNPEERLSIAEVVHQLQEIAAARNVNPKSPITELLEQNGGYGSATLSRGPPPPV

A further experiment addresses T6, PLK4A (Homo sapiens, UniProt O00444).
T6 construct: purchased in-house DSF panel (SGC-style construct names; the trailing A/B is a construct suffix)
T6 sequence (O00444 2-275): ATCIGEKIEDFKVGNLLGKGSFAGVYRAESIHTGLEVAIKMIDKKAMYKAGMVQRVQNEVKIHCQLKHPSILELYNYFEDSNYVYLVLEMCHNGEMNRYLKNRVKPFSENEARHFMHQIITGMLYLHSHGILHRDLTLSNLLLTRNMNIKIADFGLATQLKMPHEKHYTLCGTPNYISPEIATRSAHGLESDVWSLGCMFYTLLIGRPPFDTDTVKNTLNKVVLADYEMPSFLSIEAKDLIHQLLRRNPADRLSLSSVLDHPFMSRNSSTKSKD

The target of another experiment is T7, STK17A (Homo sapiens, UniProt Q9UEE5).
T7 construct: purchased in-house DSF panel (SGC-style construct names; the trailing A/B is a construct suffix)
T7 sequence (Q9UEE5 61-321): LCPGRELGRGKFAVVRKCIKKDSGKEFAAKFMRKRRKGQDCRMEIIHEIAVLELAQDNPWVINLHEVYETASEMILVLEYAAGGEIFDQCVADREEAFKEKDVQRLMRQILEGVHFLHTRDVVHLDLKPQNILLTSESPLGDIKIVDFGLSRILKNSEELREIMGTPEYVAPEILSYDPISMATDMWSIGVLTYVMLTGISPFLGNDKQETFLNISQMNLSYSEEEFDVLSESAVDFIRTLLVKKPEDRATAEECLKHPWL

The target in the next experiment is T8, WNK1A (Homo sapiens, UniProt Q9H4A3).
T8 construct: purchased in-house DSF panel (SGC-style construct names; the trailing A/B is a construct suffix)

SMILES strings stand for the structures.

T8 sequence (Q9H4A3 206-483): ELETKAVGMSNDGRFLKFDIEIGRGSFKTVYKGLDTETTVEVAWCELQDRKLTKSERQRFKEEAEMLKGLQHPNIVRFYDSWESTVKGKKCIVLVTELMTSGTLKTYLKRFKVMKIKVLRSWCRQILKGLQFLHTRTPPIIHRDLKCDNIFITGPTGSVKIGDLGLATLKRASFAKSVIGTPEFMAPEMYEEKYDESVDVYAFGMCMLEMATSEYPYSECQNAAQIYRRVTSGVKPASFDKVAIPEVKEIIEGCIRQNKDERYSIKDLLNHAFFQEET
T1 sequence (P15056 448-723): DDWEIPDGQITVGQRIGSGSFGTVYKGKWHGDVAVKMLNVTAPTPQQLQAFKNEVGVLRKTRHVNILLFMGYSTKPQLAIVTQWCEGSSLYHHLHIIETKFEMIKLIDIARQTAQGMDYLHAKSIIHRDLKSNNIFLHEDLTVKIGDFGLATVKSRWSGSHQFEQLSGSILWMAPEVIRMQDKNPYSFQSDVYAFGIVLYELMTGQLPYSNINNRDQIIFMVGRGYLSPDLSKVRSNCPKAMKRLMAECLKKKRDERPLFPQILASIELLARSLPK
T3 sequence (Q00532 1-303): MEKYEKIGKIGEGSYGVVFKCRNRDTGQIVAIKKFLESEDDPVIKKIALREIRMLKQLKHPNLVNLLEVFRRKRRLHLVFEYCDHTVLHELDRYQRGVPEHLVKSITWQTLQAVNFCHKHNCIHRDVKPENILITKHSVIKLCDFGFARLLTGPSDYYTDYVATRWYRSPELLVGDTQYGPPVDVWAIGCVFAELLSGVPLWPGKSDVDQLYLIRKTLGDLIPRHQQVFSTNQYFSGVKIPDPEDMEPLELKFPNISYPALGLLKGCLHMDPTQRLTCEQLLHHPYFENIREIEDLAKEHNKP

In the case of `CC(C)(C)OC(=O)NCCOCCOCCOCCOCCC(=O)N1CCN(c2cc(Nc3cc(C4CC4)[nH]n3)nc(Nc3ccc(CC#N)cc3)n2)CC1` [4-L], the ΔTm (commonly the shift of the melting midpoint relative to a reference) at 20 µM on BRAFA was 1.63 °C; on CAMK4A, 2.43 °C; on CDKL1A it was 6.63 °C; at FLT1, 11.7 °C; at GAKA it was 5.92 °C; at PLK4A, 16.1 °C. Further, the ΔTm at 20 µM came out at 8.17 °C at STK17A and 1.05 °C at WNK1A.

Regarding `CCOC(=O)c1cc(Nc2cc(C3CC3)[nH]n2)nc(Nc2ccc(CC#N)cc2)n1` [compound 5], the ΔTm at 20 µM on BRAFA worked out at 1.72 °C; at CAMK4A, 3.64 °C; on CDKL1A, 6.89 °C; at FLT1 it was 9.16 °C; on GAKA, 4.56 °C; on PLK4A, 13.2 °C. For the same molecule, the ΔTm at 20 µM came to 6.97 °C at STK17A and 0.55 °C at WNK1A.

`CC(C)(C)OC(=O)NCCCOCCOCCOCCCNC(=O)c1cc(Nc2cc(C3CC3)[nH]n2)nc(Nc2ccc(CC#N)cc2)n1` [5-L]: the shift in melting temperature (ΔTm) at 20 µM was found to be 2.09 °C on BRAFA; 5.11 °C on CAMK4A; 6.41 °C on CDKL1A; 8.06 °C at FLT1; 3.75 °C on GAKA; 11.6 °C on PLK4A. Besides, the results for the ΔTm at 20 µM at STK17A and on WNK1A were 5.46 °C and 0.56 °C, respectively.

The values are drawn from paper PMC11851430, “Workflow for E3 Ligase Ligand Validation for PROTAC Development” (ACS Chemical Biology, 2025).
